Test results as given in PubChem BioAssay (NCI).
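The concentration for 50% growth inhibition is given as GI50. Definition used: TGI = concentration required for complete inhibition of growth.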

Assays:
Assay in all cases: NCI tumour cell line growth inhibition, 384-well format
[1] = tested on: COLO 205 colon
[2] = tested on: RPMI-8226 leukemia
[3] = tested on: 786-0 renal
[4] = tested on: IGROV1 ovarian
[5] = tested on: TK-10 renal
[6] = tested on: MDA-MB-231 breast
[7] = tested on: SK-OV-3 ovarian
[8] = tested on: OVCAR-3 ovarian
[9] = tested on: ACHN renal
[10] = tested on: UO-31 renal
[11] = tested on: SNB-75 CNS
[12] = tested on: NCI-H460 NSCLC
[13] = tested on: SF-268 CNS
[14] = tested on: HS 578T breast
[15] = tested on: DU-145 prostate
[16] = tested on: RXF 393 renal
[17] = tested on: UACC-62 melanoma
[18] = tested on: MDA-MB-435 melanoma
[19] = tested on: HOP-62 NSCLC
[20] = tested on: A498 renal
[21] = tested on: HOP-92 NSCLC
[22] = tested on: NCI-H23 lung
[23] = tested on: HCT-116 colon
[24] = tested on: K-562 leukemia
[25] = tested on: BT-549 breast
[26] = tested on: MDA-MB-468 breast
[27] = tested on: NCI/ADR-RES ovarian
[28] = tested on: LOX IMVI melanoma
[29] = tested on: SK-MEL-5 melanoma
[30] = tested on: SF-295 CNS
[31] = tested on: SF-539 CNS
[32] = tested on: CAKI-1 renal
[33] = tested on: NCI-H522 lung
[34] = tested on: EKVX NSCLC
[35] = tested on: MALME-3M melanoma
[36] = tested on: KM12 colon
[37] = tested on: M14 melanoma
[38] = tested on: HCT-15 colon
[39] = tested on: OVCAR-4 ovarian
[40] = tested on: PC-3 prostate
[41] = tested on: SK-MEL-2 melanoma
[42] = tested on: HT29 colon
[43] = tested on: A549 NSCLC
[44] = tested on: UACC-257 melanoma
[45] = tested on: HCC-2998 colon
[46] = tested on: NCI-H226 lung
[47] = tested on: SW-620 colon

CC(C)[C@](O)(c1ccc2cc(OC(F)F)c(OC(F)F)cc2c1)c1cn[nH]n1
GI50 [1]: 20.3 µM
TGI [1]: 39.9 µM
GI50 [2]: 9.27 µM
TGI [2]: 22.5 µM
GI50 [3]: 16.2 µM
TGI [3]: 30.3 µM
GI50 [4]: 17.6 µM
TGI [4]: 37 µM
GI50 [5]: 14.7 µM
TGI [5]: 30.2 µM
GI50 [6]: 13.2 µM
TGI [6]: 26.3 µM
GI50 [7]: 15.4 µM
TGI [7]: 29.5 µM
GI50 [8]: 13 µM
TGI [8]: 25.8 µM
GI50 [9]: 25.5 µM
TGI [9]: 59.8 µM
GI50 [10]: 16.6 µM
TGI [10]: 30.4 µM
GI50 [11]: 14.9 µM
TGI [11]: 29.5 µM
GI50 [12]: 16.6 µM
TGI [12]: 30.5 µM
GI50 [13]: 16.5 µM
TGI [13]: 30.6 µM
GI50 [14]: 12.3 µM
TGI [14]: 24.8 µM
GI50 [15]: 16.5 µM
TGI [15]: 32.8 µM
GI50 [16]: 13.8 µM
TGI [16]: 28.3 µM
GI50 [17]: 16.4 µM
TGI [17]: 30 µM
GI50 [18]: 16.9 µM
TGI [18]: 31.3 µM
GI50 [19]: 16.3 µM
TGI [19]: 30 µM
GI50 [20]: 17.5 µM
TGI [20]: 31.8 µM
GI50 [21]: 16.7 µM
TGI [21]: 30.4 µM
GI50 [22]: 14.8 µM
TGI [22]: 29.6 µM
GI50 [23]: 13.6 µM
TGI [23]: 26.9 µM
GI50 [24]: 11 µM
TGI [24]: 23.5 µM
GI50 [25]: 14.6 µM
TGI [25]: 27.9 µM
GI50 [26]: 10.3 µM
TGI [26]: 27.7 µM
GI50 [27]: 18.7 µM
TGI [27]: 33.8 µM
GI50 [28]: 17.3 µM
TGI [28]: 31.2 µM
GI50 [29]: 13.1 µM
TGI [29]: 25.9 µM
GI50 [30]: 15 µM
TGI [30]: 28.7 µM
GI50 [31]: 16.8 µM
TGI [31]: 30.5 µM
GI50 [32]: 15.7 µM
TGI [32]: 32.3 µM
GI50 [33]: 13.6 µM
TGI [33]: 27.7 µM
GI50 [34]: 13.1 µM
TGI [34]: 28.8 µM
GI50 [35]: 16.7 µM
TGI [35]: 30.9 µM
GI50 [36]: 15 µM
TGI [36]: 28.6 µM
GI50 [37]: 17.6 µM
TGI [37]: 31.6 µM
GI50 [38]: 14.4 µM
TGI [38]: 27.8 µM
GI50 [39]: 13.6 µM
TGI [39]: 33.1 µM
GI50 [40]: 15.9 µM
TGI [40]: 30.3 µM
GI50 [41]: 19.4 µM
TGI [41]: 33.5 µM
GI50 [42]: 16 µM
TGI [42]: 29.8 µM
GI50 [43]: 17.4 µM
TGI [43]: 44.8 µM
GI50 [44]: 16.5 µM
TGI [44]: 30.6 µM
GI50 [45]: 15.4 µM
TGI [45]: 28.9 µM
GI50 [46]: 21 µM
TGI [46]: 36 µM
GI50 [47]: 15.2 µM
TGI [47]: 28.8 µM
